{"source": "patent US20170037480A1", "about": "“HSF1 IN TUMOR STROMA” (Whitehead Institute for Biomedical Research, priority 2014, published 2017)", "key": {"D2A1 cancer cells": {"system": "D2A1 cancer cells", "assay": "Growth of D2A1 cancer cells grown alone (no MEFs), Cell-Titer Glo luminescence", "type": "cell-based, mouse", "settings": "LY2109761 1 μM, 72 h, daily re-addition of inhibitor", "experimental": "Figs. S4A-S4F show additional results. (A) Tgfβ and Sdf1 mRNA levels are regulated by HSF1 in primary MEFs. The relative expression of Sdf1, Tgfβ1 and Tgfβ2 in three separate sets of WT or Hsf1 null MEFs (each derived from a different pregnancy) was measured by quantitative PCR. mRNA expression levels were normalized to the house keeping gene Gapdh. The experiment was repeated 3 times (each time with a different set of primary MEFs), in triplicate. Representative results are shown as the mean+/−SEM. *p<0.05, **p<0.01, ***p<0.001. […] WT or Hsf1 null immortalized MEFs were plated and treated with mitomycin C. D2A1 cells marked with dsRed were then seeded on top of the MEFs in the presence or absence of 10 ng/ml TGFβ1, 100 ng/ml SDF1 or a combination of both. After 96 h, cells were trypsinized and quantitated by flow cytometry. The percentage of cancer cells in the co-culture is presented. The experiment was repeated 3 times, in triplicate. […] Relative cell number was measured by luminescence using Cell-Titer Glo reagent (Promega). […] After growth for 96 h, cells were trypsinized and quantitated by flow cytometry. […] Relative levels of SMAD2 in WT immortalized MEFs (left two panels) or D2A1 cells (right two panels) were measured by immunoblotting lysates prepared from cells stably expressing shRNA hairpins targeting Smad2 (shSmad2) or GFP (shGFP). […]"}, "[1]": {"system": "D2A1 cells co-cultured with WT MEFs", "assay": "Co-culture of dsRed D2A1 cancer cells on WT MEF feeder layer, cancer cells counted by flow cytometry", "type": "cell-based, mouse", "settings": "LY2109761, MEFs pretreated 30 minutes, 72 h, daily supplementation; p=0.008", "experimental": "(A) The relative expression of Sdf1, Tgfβ1 and Tgfβ2 in WT or Hsf1 null immortalized MEFs was measured by quantitative PCR. mRNA expression levels were normalized to the house keeping gene Gapdh. The mean of 3 independent experiments is shown. Error bars, SEM. *p<0.05, **p<0.01. (B-C) WT or Hsf1 null immortalized MEFs were plated and treated with mitomycin C as in FIG. 3A. D2A1 cells marked with dsRed were then seeded on top of the MEFs in the presence or absence of 10 ng/ml TGFβ1 and 100 ng/ml SDF1. After 96 h, cells were either visualized by fluorescent microscopy (B) or trypsinized and quantitated by flow cytometry (C). The percentage of cancer cells in co-culture is presented. The experiment was repeated 3 times, in triplicate. Representative results of one experiment are shown as the mean+/−SEM. *p<0.05. […] Cultures were continued for 72 h, with daily supplementation of LY2109761 (or not, as control), and then analyzed as in (C). […] Results are expressed as the mean relative number of cancer cells, normalized to the non-drug treated co-cultures with WT MEFs. […] (E) Immortalized WT MEFs stably expressing shRNA hairpins targeting Smad2 (shSmad2) or GFP (shGFP) were co-cultured with D2A1 cells, treated and analyzed as in (C). […] IPs were analyzed by qPCR with primers targeting potential heat shock elements in mouse Sdf1 and Tgfβ2. […]"}, "[2]": {"system": "D2A1 cells co-cultured with Hsf1 null MEFs", "assay": "Co-culture of dsRed D2A1 cancer cells on Hsf1 null MEF feeder layer, cancer cells counted by flow cytometry", "type": "cell-based, mouse", "settings": "for cancer cell growth (percentage of cancer cells) in co-culture with Hsf1 null MEFs on addition of recombinant proteins: 10 ng/ml TGFβ1, 100 ng/ml SDF1, added once, 96 h", "experimental": "(A) The relative expression of Sdf1, Tgfβ1 and Tgfβ2 in WT or Hsf1 null immortalized MEFs was measured by quantitative PCR. mRNA expression levels were normalized to the house keeping gene Gapdh. The mean of 3 independent experiments is shown. Error bars, SEM. *p<0.05, **p<0.01. (B-C) WT or Hsf1 null immortalized MEFs were plated and treated with mitomycin C as in FIG. 3A. D2A1 cells marked with dsRed were then seeded on top of the MEFs in the presence or absence of 10 ng/ml TGFβ1 and 100 ng/ml SDF1. After 96 h, cells were either visualized by fluorescent microscopy (B) or trypsinized and quantitated by flow cytometry (C). The percentage of cancer cells in co-culture is presented. The experiment was repeated 3 times, in triplicate. Representative results of one experiment are shown as the mean+/−SEM. *p<0.05. (D) Immortalized WT or Hsf1 null mitomycin-treated MEFs were pretreated, or not, with LY2109761 for 30 minutes before D2A1 cells marked with dsRed were seeded on top. Cultures were continued for 72 h, with daily supplementation of LY2109761 (or not, as control), and then analyzed as in (C). The experiment was repeated 3 times, in triplicates. Results are expressed as the mean relative number of cancer cells, normalized to the non-drug treated co-cultures with WT MEFs. […] (E) Immortalized WT MEFs stably expressing shRNA hairpins targeting Smad2 (shSmad2) or GFP (shGFP) were co-cultured with D2A1 cells, treated and analyzed as in (C). […] IPs were analyzed by qPCR with primers targeting potential heat shock elements in mouse Sdf1 and Tgfβ2. […]\nFigs. S4A-S4F show additional results. […] The relative expression of Sdf1, Tgfβ1 and Tgfβ2 in three separate sets of WT or Hsf1 null MEFs (each derived from a different pregnancy) was measured by quantitative PCR. mRNA expression levels were normalized to the house keeping gene Gapdh. […] After 96 h, cells were trypsinized and quantitated by flow cytometry. […] Relative cell number was measured by luminescence using Cell-Titer Glo reagent (Promega). […] After growth for 96 h, cells were trypsinized and quantitated by flow cytometry. […]"}, "HSF1 [3]": {"system": "HSF1", "assay": "Effect of RHT on expression of HSF1 stromal signature genes in Hsf1+/+ versus Hsf1-/- MEFs", "type": "cell-based, mouse", "settings": "reduced in treated Hsf1+/+ MEFs but not in Hsf1-/- MEFs", "description": "A combination of experimental and bioinformatic approaches was used to define a set of HSF1-regulated genes of particular use for assessing the level of HSF1 activity in tumor-associated stromal cells for purposes of cancer classification, diagnosis, prognosis, treatment-specific prediction, and treatment selection. The pipeline started with the Group 1 and Group 4 gene lists described above. As described above, these 871 genes have increased expression in Hsf1+/+ versus Hsf1−/−MEFs. These 871 genes map to 562 genes in the Finak, G. et al. dataset discussed above (GEO (GSE9014)). […] Its structure is depicted below.\nThe 562 genes that mapped to genes in the Finak dataset were tested to determine the effect of RHT on their expression in Hsf1+/+MEFs versus […] MEFs. […] A filter was applied to these genes to identify those that were differentially expressed in tumors in the Finak dataset with poor versus good outcomes."}, "HSF1 [4]": {"system": "HSF1", "settings": "recent chemical screening effort; cited from earlier work"}}, "note": "Entries after “also recorded” stand apart in the source; their conditions may differ."}
{"compound": "c1ccc(-c2nn3c(c2-c2ccnc4cc(OCCN5CCOCC5)ccc24)CCC3)nc1", "note": "[LY2109761]", "values": [{"measurement": "growth or survival of D2A1 cancer cells grown alone (relative cell number)", "setting": "D2A1 cancer cells", "result": "did not affect; also recorded: does not directly inhibit"}, {"measurement": "growth of D2A1 cancer cells in co-culture with WT MEFs (relative number of cancer cells)", "setting": "[1]", "result": "significantly reduce their growth"}, {"measurement": "growth of D2A1 cancer cells in co-culture with Hsf1 null MEFs (relative number of cancer cells)", "setting": "[2]; LY2109761, MEFs pretreated 30 minutes, 72 h, daily supplementation, p=0.1", "result": "A smaller effect, that did not reach statistical significance"}]}
{"compound": "SDF1: purified recombinant protein (R&D systems, 460-SD-010)", "values": [{"measurement": "cancer cell growth (percentage of cancer cells) in co-culture with Hsf1 null MEFs on addition of recombinant proteins", "setting": "[2]", "result": "Partial effects, that did not reach statistical significance"}]}
{"compound": "COc1ccc([C@@]23Oc4cc(OC)cc(OC)c4[C@]2(O)[C@H](O)[C@H](C(=O)N(C)OC)[C@H]3c2ccccc2)cc1", "note": "[Rohinitib]", "values": [{"measurement": "number of genes (of 562 tested) whose expression was suppressed in an HSF1-dependent fashion", "setting": "HSF1 [3]", "result": 95}, {"measurement": "inhibition of HSF1 activity", "setting": "HSF1 [4]", "result": "potent inhibitor"}]}
{"compound": "TGFβ1: purified recombinant protein (R&D systems, 240-B-002)", "values": [{"measurement": "cancer cell growth (percentage of cancer cells) in co-culture with Hsf1 null MEFs on addition of recombinant proteins", "setting": "[2]", "result": "Partial effects, that did not reach statistical significance"}]}
